“Also recorded” adds a separate entry of the source.
How the values were obtained:
C57BL/6 mice [1] = assay: EAE induced by immunization with MOG35-55 in CFA; format: in vivo, mouse; set-up: EAE severity: dose or concentration left out as unconfirmed
CD11c+ and CD11b+ cells = assay: MHC class II expression on CD11c+ and CD11b+ cells by FACS; format: in vivo; settings: ITE 200 mg/mouse ip daily or TCDD 1 mg/mouse ip on day 0; spleens 10 days after MOG35-55/CFA
Text: AHR is known to be expressed by antigen presenting cells (APC) such as dendritic cells (CD11c^+) and macrophages (CD11b^+) (Vorderstrasse and Kerkvliet, Toxicol Appl Pharmacol. 171, 117 (2001); Laupeze et al., J Immunol. 168, 2652 (2002); Hayashi et al., Carcinogenesis. 16, 1403 (1995); Komura et al., Mol Cell Biochem. 226, 107 (2001)). To analyze the effects that AHR activation by ITE might have on different APC populations, which can potentially influence the generation of Teff and Treg cells, we studied the effect of ITE and TCDD treatment on MHC class II expression by as dendritic cells (CD11c^+) and macrophages (CD11b). C57BL/6 mice were treated with ITE (200 mg/mouse administered ip, daily) or TCDD (1 mg/mouse administered ip on day 0) and immunized them with […] of MOG35-55 in CFA. Spleens were prepared 10 days later and […] expression was investigated on CD11b^+ and CD11c^+ cells by FACS.

CD4+Foxp3+ Treg = CD4+Foxp3+ Treg quantified by FACS in treated mice; format: in vivo, mouse; set-up: number of CD4+FoxP3+ Treg / number of CD4+Foxp3+ T cells / levels of LAP+ regulatory T cells / number of CD4+FoxP3:GFP+ Treg in blood and spleen: dose or concentration left out as unconfirmed
[2] = test system: MOG35-55-specific Treg and Teff; assay: MOG35-55-specific Treg and Teff by MHC class II tetramer FACS; format: in vivo, mouse; settings: Foxp3gfp mice, ITE 200 mg/mice intraperitoneal daily
Procedure: To investigate the effect of AHR activation by ITE on the frequency of MOG35-55 specific Treg and effector T cells (Teff), Foxp3^gpf knock in mice were immunized with MOG35-55/CFA, treated daily with intreaperitoneal ITE ([…]) and MOG35-55-specific Treg (CD4^+ FoxP3:GFP^+) and Teff (CD4^+ FoxP3:GFP^−) were analyzed by FACS using recombinant MHC class II tetramers containing […] or the control peptide TMEV70-86.

C57BL/6 mice [3] = assay: EAE in recipient mice after transfer of CD4+ T cells from treated mice; format: in vivo, mouse
Text: To identify the mechanism responsible for the decreased proliferation to MOG35-55 in TCDD-treated animals shown in FIG. 4D, the CD4^+CD25^+ Treg population was depleted with magnetic beads. […] The control of the pathogenic T cell response was mediated by CD4^+CD25^+ Treg, their depletion abrogated the protective effect of the transferred cells (P<0.001, two-way ANOVA, n=4; FIG. 5C).
To confirm that the protective effect of TCDD on EAE was Treg mediated we depleted the natural Treg with antibodies to CD25 prior to TCDD treatment. […] This protective effect was lost when CD4^+CD25^+ T cells were depleted, see FIG. 5h and Table 5.
The control of the pathogenic T cell response was mediated by CD4^+CD25^+ Treg, their depletion from the transferred population abrogated the protective effect of the transferred cells. Thus, the Treg induced by the activation of AHR with ITE inhibit the progression of EAE.

[4] = in vivo; cited from earlier work
[5] = test system: CD4+ CD62L+CD45RO- T cells; assay: In vitro differentiation of human naive CD4+ T cells, suppression and real time PCR; format: cell-based
Procedure: To investigate the potential of AHR targeting for the induction of human Treg we activated purified naïve CD4^+ CD62L^+CD45RO^− T cells for healthy donors for 5 days with antibodies to CD3 and CD28 in the presence of TCDD 100 nM or TGFb1 2.5 ng/ml or both.
To study the functionality of the putative human Treg induced in the presence of TCDD we studied their suppressive activity of CD4^+ CD25^High and CD4^+CD25^Low T cells following 5 days of activation in the of TCDD or TGFb1 2.5 ng/ml or both.
To investigate the mechanism mediating the suppressive activity of the TCDD-induced Treg, we analyzed them by real time PCR for the expression of several genes that have been previously linked to the suppressive function of Treg. […] Accordingly, IL-10-specific blocking antibodies could interfere with the suppressive activity of Treg induced with TCDD, but not the of those induced with TGFb1 and TCDD (FIG. 42). Thus, TCDD-induced CD4^+CD25^High T cells are FoxP3^− regulatory cells whose suppressive activity is mediated, at least partially, via IL-10, resembling the phenotype of type 1 Treg (Roncarolo et al., Immunol Rev. 212, 28 (2006); Roncarolo and Gregori, Eur J Immunol. 38, 925 (2008)).

[6] = ITE 200 μg/mouse daily, either orally or intraperitoneally
[7] = ITE ip daily, MOG35-55/CFA, spleens
[8] = ITE orally daily, MOG35-55/CFA, spleens
[9] = C57BL/6 (WT) mice, TCDD 1 μg/mouse, Table 4
[10] = recipients of 5 × 10^6 CD4+ T cells from TCDD treated mice
[11] = recipients of 5 × 10^6 CD4+CD25- T cells from TCDD treated mice

Compound: COC(=O)c1csc(C(=O)c2c[nH]c3ccccc23)n1 [ITE, 2-(1′H-indole-3′-carbonyl)-thiazole-4-carboxylic acid methyl ester]
- protective effects on EAE (C57BL/6 mice [1]; ITE 200 μg/mouse at weekly intervals instead of daily): complete loss of tis protective effects on EAE; also recorded: fails to suppress EAE development
- EAE clinical score (C57BL/6 mice [1]; [6]): significant reduction of EAE clinical score
- EAE development (delay) (C57BL/6 mice [1]; [6]): significant delay on EAE development
- EAE severity (C57BL/6 mice [1]; administered on a daily basis): significant reduction on EAE severity
- CD11b+ MHC class II expression (CD11c+ and CD11b+ cells): significant increase
- CD11c+ MHC class II expression (CD11c+ and CD11b+ cells): significant decrease
- number of CD4+FoxP3:GFP+ Treg in blood and spleen (CD4+Foxp3+ Treg; Foxp3gfp knock in mice, ITE ip daily, ten days after MOG35-55/CFA): significant increase in the number
- levels of LAP+ regulatory T cells (CD4+Foxp3+ Treg; [7]): did lead to significant alterations
- number of CD4+FoxP3+ Treg (CD4+Foxp3+ Treg; [7]): significant increase in the number
- levels of LAP+ regulatory T cells (CD4+Foxp3+ Treg; [8]): did lead to significant alterations
- number of CD4+FoxP3+ Treg (CD4+Foxp3+ Treg; [8]): significant increase in the number
- frequency of MOG35-55-specific Teff [2]: decrease in the frequency
- frequency of MOG35-55-specific Treg [2]: concomitant increase in the frequency
- protection from EAE by transfer of CD4+ T cells (C57BL/6 mice [3]; CD4+ T cells from mice treated with oral or intraperitoneal ITE): Protection from EAE could be transferred
- toxic effects [4]: do not display the toxic effects

Compound: Clc1cc2c(cc1Cl)Oc1cc(Cl)c(Cl)cc1O2 [TCDD, 2,3,7,8 tetrachlorodibenzo-p-dioxin]
- EAE development (C57BL/6 mice [1]; AHR-ligand loaded nanoparticles, 45 femtomoles weekly starting at day 0): complete suppression of EAE
- Mean day of onset (Mean ± SD) (C57BL/6 mice [1]; [9]): 21 days
- Mean maximum score (mean ± SD) (C57BL/6 mice [1]; [9]): 0.2 ± 0.6
- histopathological signs of EAE (cellular infiltrate, demyelination, axonal loss in spinal cord) (C57BL/6 mice [1]; IP administered TCDD, day 19 after EAE induction): reduced the histopathological signs of EAE; also recorded: inhibits CNS inflammation, demyelination and axonal loss
- Incidence (positive/total) (C57BL/6 mice [1]; TCDD 0.01 μg per mouse ip): 7/7
- Mean day of onset (Mean ± standard deviation (SD)) (C57BL/6 mice [1]; TCDD 0.01 μg per mouse ip): 14.1 ± 2.9 days
- Mean maximum score (mean ± SD) (C57BL/6 mice [1]; TCDD 0.01 μg per mouse ip, EAE score 0-5): 2.7 ± 0.6
- Mean day of onset (Mean ± standard deviation (SD)) (C57BL/6 mice [1]; TCDD 0.1 μg per mouse ip): 17.0 ± 1.2 days
- Mean maximum score (mean ± SD) (C57BL/6 mice [1]; TCDD 0.1 μg per mouse ip, EAE score 0-5): 3.1 ± 0.5
- Mean day of onset (Mean ± standard deviation (SD)) (C57BL/6 mice [1]; TCDD 1 μg per mouse ip, then MOG35-55/CFA): 21.8 ± 1.5 days
- Mean maximum score (mean ± SD) (C57BL/6 mice [1]; TCDD 1 μg per mouse ip, then MOG35-55/CFA, EAE score 0-5): 0.2 ± 0.6
- clinical signs of EAE (C57BL/6 mice [1]; TCDD 1 μg/mouse ip): markedly inhibited the clinical signs of EAE
- EAE development (C57BL/6 mice [1]; TCDD 1 μg/mouse orally, one day before EAE induction): prevented EAE development
- onset of EAE (C57BL/6 mice [1]; natural Treg depleted with antibodies to CD25 prior to TCDD treatment): significant delay in the onset of EAE
- CD11b+ MHC class II expression (CD11c+ and CD11b+ cells): significant increase
- CD11c+ MHC class II expression (CD11c+ and CD11b+ cells): significant decrease
- number of CD4+FoxP3+ Treg (CD4+Foxp3+ Treg; TCDD ip, draining lymph nodes, without immunization): small increase
- frequency of CD4+Foxp3+ T cells (CD4+Foxp3+ Treg; TCDD ip, spleen, 21 days after EAE induction): significant increase in the frequency
- rebound in Treg numbers (CD4+Foxp3+ Treg; natural Treg depleted with antibodies to CD25 prior to TCDD treatment, day 7): faster rebound in their Treg numbers
- number of CD4+Foxp3+ T cells (CD4+Foxp3+ Treg; single TCDD ip followed by MOG35-55/CFA immunization, draining lymph nodes 10 days later): significant increase
- Mean day of onset (Mean ± SD) (C57BL/6 mice [3]; [10]): 13.3 ± 0.6 days
- Mean maximum score (mean ± SD) (C57BL/6 mice [3]; [10]): 0.7 ± 0.8
- Mean day of onset (Mean ± SD) (C57BL/6 mice [3]; [11]): 11.0 ± 0.0 days
- Mean maximum score (mean ± SD) (C57BL/6 mice [3]; [11]): 2.6 ± 1.8
- development of EAE (C57BL/6 mice [3]; transfer of 5×10^6 CD4+ T cells from TCDD-treated mice): significantly inhibited the development of EAE
- induction of suppressive (regulatory) T cells ([5]; 5 days activation with antibodies to CD3 and CD28, TGFb1 2.5 ng/ml or TCDD alone): generation of both CD4^+ CD25^High and CD4^+ CD25^Low functional human regulatory T cells
- IL-10 expression (real time PCR) ([5]; TCDD 100 nM): increased levels of IL-10
- FoxP3 expression (real time PCR) ([5]; TCDD 100 nM and TGFb1 2.5 ng/ml): significantly up-regulated
- FoxP3 expression (real time PCR) ([5]; TCDD 100 nM in the absence of TGFb1): marginal induction of FoxP3 expression
- induction of CD4+ FoxP3+ T cells ([5]; TCDD 100 nM, antibodies to CD3 and CD28, 5 days): in some (FIG. 36) but not all human samples
- suppressive activity of T cells generated with TCDD ([5]; TCDD together with TGFb1 2.5 ng/ml): amplified in the presence of TGFb1
